Data: patent publication US11420970B1 (NOVARTIS AG, priority 2019, dated 2022)
Like-named read-outs stand apart in the source and are kept apart here.

Tests used:
NSD2 [1-1365] = NSD2 [1-1365] (Homo sapiens (Human), UniProt O96028); assay: LC-MS/MS-based NSD2 enzymatic assay (SAH production); format: biochemical; details: read-out: NSD2 IC50
Outline: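 SAH formed was measured by LC-MS/MS using d4-SAH as internal standard and an SAH calibration curve. Compounds were preincubated 20 min with NSD2 [1-1365] and SAM; mouse-liver nucleosome then started a 90 min room-temperature reaction (8 nM enzyme, 1 μM SAM, 400 nM nucleosome final, pH 8.0), stopped with TFA.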

[1] = tested on: cellular H3K36me2 level in multiple myeloma cell line KMS11 (t(4;14)+); assay: H3K36me2 cellular ELISA assay in KMS11-Par line; format: cell-based; details: Homo sapiens, KMS-11, ELISA, read-out: H3K36me2 ELISA in KMS11-Par
Procedure: H3K36Me2 Cellular ELISA Assay in KMS11-Par Line
An ELISA (enzyme-linked immunosorbent assay) based assay was used to test the ability of candidate compound to reduce cellular H3K36me2 level in multiple myeloma cell line KMS11 (t(4;14)+). KMS11 (Horizon Discovery Ltd.) cells are maintained in RPM11640 media with 12.5% FBS and 50 U/ml Penicillin-Streptomycin. For assay compound treatment, single cell suspension was prepared in Opti-MEM supplemented with B-27 and N2 supplement (Invitrogen 11058-021, 17504-044, 17502-048) for ELISA and in maintenance media for cellTiter Glo (CTG) viability assay. One day prior to cell treatment, 1,250 KMS11 cells were seeded into 384-well Greiner CellStar TC plate (Greiner #781086) at the final volume of 30 μL/well.
Cells were treated with tested compounds at the desired concentration for 72 hours. Crude histone lysate was extracted by 0.4M HCl following neutralization by 0.5M Sodium phosphate, dibasic (Na2HPO4), pH ˜12.5. Equal amount of histone lysate was loaded to Corning 384-well high biding plate (Corning #3577, black) for H3K36m2 and to Thermo 384-well high binding Nunc plate (Thermo #460372, white) for total H3.
Histone bound plates were washed and blocked with 5% BSA. […] The abundance of H3K36me2 and total H3 was measured by Chemiluminesce on a plate reader. Cell viability was monitored on a parallel seeded plate with CellTiter-Glo reagent (Promega #G7573).

[2] = NSD2 biochemical activity, class symbols
[3] = KMS11-Par line (t(4;14)+), 72 hours treatment

Chain of NSD2 [1-1365] (O96028 whole entry): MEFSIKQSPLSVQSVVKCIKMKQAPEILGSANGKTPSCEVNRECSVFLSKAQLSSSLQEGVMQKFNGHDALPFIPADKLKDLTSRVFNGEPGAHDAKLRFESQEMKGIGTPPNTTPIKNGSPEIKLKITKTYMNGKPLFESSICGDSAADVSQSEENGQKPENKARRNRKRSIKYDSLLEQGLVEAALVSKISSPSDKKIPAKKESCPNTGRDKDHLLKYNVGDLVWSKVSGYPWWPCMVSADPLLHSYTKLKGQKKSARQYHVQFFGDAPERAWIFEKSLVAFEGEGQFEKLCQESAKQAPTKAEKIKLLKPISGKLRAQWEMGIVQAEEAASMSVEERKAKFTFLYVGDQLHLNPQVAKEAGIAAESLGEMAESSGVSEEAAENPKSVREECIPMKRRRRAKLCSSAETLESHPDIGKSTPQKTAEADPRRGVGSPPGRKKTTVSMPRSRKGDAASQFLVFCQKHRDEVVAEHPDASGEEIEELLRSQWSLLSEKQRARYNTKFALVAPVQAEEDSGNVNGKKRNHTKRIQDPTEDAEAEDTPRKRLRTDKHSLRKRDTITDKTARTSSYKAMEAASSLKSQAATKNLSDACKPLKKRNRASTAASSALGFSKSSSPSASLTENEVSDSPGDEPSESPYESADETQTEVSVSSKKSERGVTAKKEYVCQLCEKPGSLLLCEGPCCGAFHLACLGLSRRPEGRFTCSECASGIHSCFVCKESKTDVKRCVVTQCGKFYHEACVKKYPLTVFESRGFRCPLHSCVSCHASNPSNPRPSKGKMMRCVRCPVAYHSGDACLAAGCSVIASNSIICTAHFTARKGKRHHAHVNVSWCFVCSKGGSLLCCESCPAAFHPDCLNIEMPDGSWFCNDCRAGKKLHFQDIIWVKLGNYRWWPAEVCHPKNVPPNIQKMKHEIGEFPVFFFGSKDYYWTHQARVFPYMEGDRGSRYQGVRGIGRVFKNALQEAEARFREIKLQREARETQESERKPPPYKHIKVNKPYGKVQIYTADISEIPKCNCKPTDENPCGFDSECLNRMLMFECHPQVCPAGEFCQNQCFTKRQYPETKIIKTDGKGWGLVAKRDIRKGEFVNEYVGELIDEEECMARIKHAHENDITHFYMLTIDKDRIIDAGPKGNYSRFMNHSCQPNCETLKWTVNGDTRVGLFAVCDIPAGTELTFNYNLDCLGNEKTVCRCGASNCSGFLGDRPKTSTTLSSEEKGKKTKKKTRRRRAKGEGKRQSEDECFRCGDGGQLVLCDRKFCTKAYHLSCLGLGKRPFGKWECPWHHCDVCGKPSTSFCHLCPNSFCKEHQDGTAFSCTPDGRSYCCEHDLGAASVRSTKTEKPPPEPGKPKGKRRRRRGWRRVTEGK

C=CC(=O)Nc1ccc(-c2cc(Cn3cnc4c(N)ncnc43)c(N3CCCC(N)(CC(F)F)C3)cn2)cc1 (stereo not drawn) [Example 76, N-(4-(5-(3-amino-3-(2,2-difluoroethyl)piperidin-1-yl)-4-((6-amino-9H-purin-9-yl)methyl)pyridin-2-yl)phenyl)acrylamide]
IC50 (NSD2 [1-1365]; [2]): 10 to 1000 nM | IC50 [1, 3]: 2120 nM

Cc1cccc(C2(N)CCCN(c3cnc(-c4ccc(F)c(F)c4)cc3Cn3cnc4c(N)ncnc43)C2)n1 (stereo not drawn) [Example 177, 9-((5-(3-amino-3-(6-methylpyridin-2-yl)piperidin-1-yl)-2-(3,4-difluorophenyl)pyridin-4-yl)methyl)-9H-purin-6-amine]
IC50 (NSD2 [1-1365]): 1 to 10 nM | IC50 ([1]; KMS11-Par line, 72 hours): 407 nM

COc1ccc(-c2cc(Cn3cnc4c(N)nccc43)c(N3CCC[C@](N)(Cc4ccccn4)C3)cn2)cc1F [Example 50, (S)-1-((5-(3-amino-3-(pyridin-2-ylmethyl)piperidin-1-yl)-2-(3-fluoro-4-methoxyphenyl)pyridin-4-yl)methyl)-1H-imidazo[4,5-c]pyridin-4-amine]
IC50 (NSD2 [1-1365]; [2]): 1 to 10 nM | IC50 [1, 3]: 895 nM

Nc1ncnc2c1ncn2Cc1cc(-c2ccc(F)c(F)c2)ncc1N1CCCC(N)(c2cccnc2)C1 (stereo not drawn) [Example 271, 9-((5-(3-amino-3-(pyridin-3-yl)piperidin-1-yl)-2-(3,4-difluorophenyl)pyridin-4-yl)methyl)-9H-purin-6-amine]
IC50 (NSD2 [1-1365]): > 1000 nM | IC50 ([1]; KMS11-Par line, 72 hours): 33300 nM

Nc1nccc2c1ncn2Cc1cc(C2CC2)ncc1N1CCC[C@](N)(c2cccc(C(F)F)n2)C1 [Example 264, (R)-1-((5-(3-amino-3-(6-(difluoromethyl)pyridin-2-yl)piperidin-1-yl)-2-cyclopropylpyridin-4-yl)methyl)-1H-imidazo[4,5-c]pyridin-4-amine]
IC50 (NSD2 [1-1365]): 10 to 1000 nM | IC50 ([1]; KMS11-Par line, 72 hours): 9630 nM

CC(C)n1ccc([C@@]2(N)CCCN(c3cnc(-c4ccc(F)cc4)cc3Cn3cnc4c(N)ncnc43)C2)n1 [Example 274, (R)-9-((5-(3-amino-3-(1-isopropyl-1H-pyrazol-3-yl)piperidin-1-yl)-2-(4-fluorophenyl)pyridin-4-yl)methyl)-9H-purin-6-amine]
IC50 (NSD2 [1-1365]): 1 to 10 nM | IC50 ([1]; KMS11-Par line, 72 hours): 5540 nM

Nc1ncnc2c1ncn2Cc1cc(-c2ccc(F)c(F)c2)ncc1N1CCC[C@](N)(c2ncccc2F)C1 [Example 199, (R)-9-((5-(3-amino-3-(3-fluoropyridin-2-yl)piperidin-1-yl)-2-(3,4-difluorophenyl)pyridin-4-yl)methyl)-9H-purin-6-amine]
IC50 (NSD2 [1-1365]): 1 to 10 nM | IC50 ([1]; KMS11-Par line, 72 hours): 846 nM

Nc1nccc2c1ncn2Cc1cc(-c2ccc(F)c(F)c2)ncc1N1CCCC(N)(c2cccc(F)n2)C1 (stereo not drawn) [Example 262, 1-((5-(3-amino-3-(6-fluoropyridin-2-yl)piperidin-1-yl)-2-(3,4-difluorophenyl)pyridin-4-yl)methyl)-1H-imidazo[4,5-c]pyridin-4-amine]
IC50 (NSD2 [1-1365]): 10 to 1000 nM | IC50 ([1]; KMS11-Par line, 72 hours): 1330 nM

Nc1nccc2c1ncn2Cc1cc(-c2ccc(F)cc2)ncc1N1CCCC(N)(c2ccn(C3CC3)n2)C1 (stereo not drawn) [Example 280, 1-((5-(3-amino-3-(1-cyclopropyl-1H-pyrazol-3-yl)piperidin-1-yl)-2-(4-fluorophenyl)pyridin-4-yl)methyl)-1H-imidazo[4,5-c]pyridin-4-amine]
IC50 (NSD2 [1-1365]): 1 to 10 nM | IC50 ([1]; KMS11-Par line, 72 hours): 1490 nM

Nc1ncnc2c1ncn2Cc1cc(-c2ccc(F)c(F)c2)ncc1N1CCCC(N)(c2cncc(Cl)n2)C1 (stereo not drawn) [Example 254, 9-((5-(3-amino-3-(6-chloropyrazin-2-yl)piperidin-1-yl)-2-(3,4-difluorophenyl)pyridin-4-yl)methyl)-9H-purin-6-amine]
IC50 (NSD2 [1-1365]): 10 to 1000 nM | IC50 ([1]; KMS11-Par line, 72 hours): 1540 nM

Nc1nccc2c1ncn2Cc1cc(C2CCC2)ncc1N1CCCC(N)(c2cccc(Cl)n2)C1 (stereo not drawn) [Example 267, 1-((5-(3-amino-3-(6-chloropyridin-2-yl)piperidin-1-yl)-2-cyclobutylpyridin-4-yl)methyl)-1H-imidazo[4,5-c]pyridin-4-amine]
IC50 (NSD2 [1-1365]): 10 to 1000 nM | IC50 ([1]; KMS11-Par line, 72 hours): 1910 nM

Nc1ncnc2c1ncn2Cc1cc(-c2ccc(F)cc2)ncc1N1CCCC(N)(c2cccc(Cl)n2)C1 (stereo not drawn) [Example 205, 9-((5-(3-amino-3-(6-chloropyridin-2-yl)piperidin-1-yl)-2-(4-fluorophenyl)pyridin-4-yl)methyl)-9H-purin-6-amine]
IC50 (NSD2 [1-1365]): 1 to 10 nM | IC50 ([1]; KMS11-Par line, 72 hours): 632 nM

Nc1ncnc2c1ncn2Cc1cc(-c2ccc(F)c(F)c2)ncc1N1CCC[C@](N)(c2ccnc(Cl)c2)C1 [Example 246, (S)-9-((5-(3-amino-3-(2-chloropyridin-4-yl)piperidin-1-yl)-2-(3,4-difluorophenyl)pyridin-4-yl)methyl)-9H-purin-6-amine]
IC50 (NSD2 [1-1365]): 10 to 1000 nM | IC50 ([1]; KMS11-Par line, 72 hours): 16700 nM

Nc1nccc2c1ncn2Cc1cc(-c2ccc(F)c(F)c2)ncc1N1CCC[C@](N)(Cc2nccs2)C1 [Example 48, (S)-1-((5-(3-amino-3-(thiazol-2-ylmethyl)piperidin-1-yl)-2-(3,4-difluorophenyl)pyridin-4-yl)methyl)-1H-imidazo[4,5-c]pyridin-4-amine]
IC50 (NSD2 [1-1365]; [2]): 1 to 10 nM | IC50 [1, 3]: 464 nM

Nc1ncnc2c1ncn2Cc1cc(-c2ccc(F)c(F)c2)ncc1N1CCCC(N)(c2ccn(C3CC3)n2)C1 (stereo not drawn) [Example 278, 9-((5-(3-amino-3-(1-cyclopropyl-1H-pyrazol-3-yl)piperidin-1-yl)-2-(3,4-difluorophenyl)pyridin-4-yl)methyl)-9H-purin-6-amine]
IC50 (NSD2 [1-1365]): 1 to 10 nM | IC50 ([1]; KMS11-Par line, 72 hours): 475 nM

Nc1ncnc2c1ncn2Cc1cc(-c2ccc(F)c(F)c2)ncc1N1CCCC(N)(c2cnccn2)C1 (stereo not drawn) [Example 259, 9-((5-(3-amino-3-(pyrazin-2-yl)piperidin-1-yl)-2-(3,4-difluorophenyl)pyridin-4-yl)methyl)-9H-purin-6-amine]
IC50 (NSD2 [1-1365]): 10 to 1000 nM | IC50 ([1]; KMS11-Par line, 72 hours): 3540 nM

Nc1ncnc2c1ncn2Cc1cc(-c2ccc(F)cc2)ncc1N1CCC[C@](N)(c2cccc(C(F)F)n2)C1 [Example 203, (R)-9-((5-(3-amino-3-(6-(difluoromethyl)pyridin-2-yl)piperidin-1-yl)-2-(4-fluorophenyl)pyridin-4-yl)methyl)-9H-purin-6-amine]
IC50 (NSD2 [1-1365]): 1 to 10 nM | IC50 ([1]; KMS11-Par line, 72 hours): 389 nM

COc1ccc(-c2cc(Cn3cnc4c(N)nccc43)c(N3CCC[C@](N)(Cc4nccs4)C3)cn2)cc1F [Example 57, (S)-1-((5-(3-amino-3-(thiazol-2-ylmethyl)piperidin-1-yl)-2-(3-fluoro-4-methoxyphenyl)pyridin-4-yl)methyl)-1H-imidazo[4,5-c]pyridin-4-amine]
IC50 (NSD2 [1-1365]; [2]): 1 to 10 nM | IC50 [1, 3]: 610 nM

Cc1cc([C@@]2(N)CCCN(c3cnc(-c4ccc(F)c(F)c4)cc3Cn3cnc4c(N)ncnc43)C2)ccn1 [Example 247, (S)-9-((5-(3-amino-3-(2-methylpyridin-4-yl)piperidin-1-yl)-2-(3,4-difluorophenyl)pyridin-4-yl)methyl)-9H-purin-6-amine]
IC50 (NSD2 [1-1365]): 10 to 1000 nM | IC50 ([1]; KMS11-Par line, 72 hours): 33300 nM

Nc1nccc2c1ncn2Cc1cc(-c2ccc(F)c(F)c2)ncc1N1CCC[C@](N)(Cc2ncco2)C1 [Example 63, (S)-1-((5-(3-amino-3-(oxazol-2-ylmethyl)piperidin-1-yl)-2-(3,4-difluorophenyl)pyridin-4-yl)methyl)-1H-imidazo[4,5-c]pyridin-4-amine]
IC50 (NSD2 [1-1365]; [2]): 10 to 1000 nM | IC50 [1, 3]: 7910 nM

Cc1cccc(C2(N)CCCN(c3cnc(C4CC4)cc3Cn3cnc4c(N)nccc43)C2)n1 (stereo not drawn) [Example 263, 1-((5-(3-amino-3-(6-methylpyridin-2-yl)piperidin-1-yl)-2-cyclopropylpyridin-4-yl)methyl)-1H-imidazo[4,5-c]pyridin-4-amine]
IC50 (NSD2 [1-1365]): 10 to 1000 nM | IC50 ([1]; KMS11-Par line, 72 hours): 4170 nM

Nc1ncnc2c1ncn2Cc1cc(-c2ccc(F)c(F)c2)ncc1N1CCC[C@](N)(c2ccncc2)C1 [Example 245, (S)-9-((5-(3-amino-3-(pyridin-4-yl)piperidin-1-yl)-2-(3,4-difluorophenyl)pyridin-4-yl)methyl)-9H-purin-6-amine]
IC50 (NSD2 [1-1365]): 10 to 1000 nM | IC50 ([1]; KMS11-Par line, 72 hours): 2150 nM

Nc1ncnc2c1ncn2Cc1cc(-c2ccc(F)c(F)c2)ncc1N1CCC[C@](N)(Cc2cnccn2)C1 [Example 74, (S)-9-((5-(3-amino-3-(pyrazin-2-ylmethyl)piperidin-1-yl)-2-(3,4-difluorophenyl)pyridin-4-yl)methyl)-9H-purin-6-amine]
IC50 (NSD2 [1-1365]; [2]): 10 to 1000 nM | IC50 [1, 3]: 4220 nM

Nc1ncnc2c1ncn2Cc1cc(-c2ccc(NC(=O)CCBr)cc2)ncc1N1CCCC(N)(CC(F)F)C1 (stereo not drawn) [Example 64, N-(4-(5-(3-amino-3-(2,2-difluoroethyl)piperidin-1-yl)-4-((6-amino-9H-purin-9-yl)methyl)pyridin-2-yl)phenyl)-3-bromopropanamide]
IC50 (NSD2 [1-1365]; [2]): 10 to 1000 nM | IC50 [1, 3]: 7000 nM
